Test results reported in patent US11419878B2, “Medicine obtained by combining FXR agonist and ARB” (Intercept Pharmaceuticals, Inc., priority 2016, dated 2022).

How the values were obtained:
[1] = tested on: human hepatic stellate cells (HHSC); assay: HHSC proliferation inhibition, WST-1 cell proliferation assay; assay type: cell-based; settings: AT-II 10^-6M + LPS 10^-5M; ARB 10^-6M, obeticholic acid 5×10^-6M; 24 hours; WST-1 absorbance
Experimental: The various combined effects of obeticholic acid and three types of ARBs (losartan, valsartan, and candesartan) were confirmed in an in vitro cell system experiment. Specifically, using human hepatic stellate cells (HHSC), which are implicated in the main mechanism of progression of hepatic fibrosis in NASH, the effects of administration of obeticholic acid in combination with the three ARBs of inhibiting HHSC proliferation capacity and the expression of fibrosis markers were evaluated according to the following method. Human hepatic stellate cells (HHSC) (also referred to as human hepatic star cells) Obeticholic acid (obtained from Intercept Pharmaceuticals, Inc. via Sumitomo Dainippon Pharma Co., Ltd.) was used as an FXR agonist, and commercial losartan (potassium salt of losartan; referred to in this working example simply as “losartan”) and valsartan and candesartan ([…] of candesartan; referred to in this working example simply as “candesartan”) were used as ARBs. […] The direct action of inhibiting HIISC proliferation capacity was evaluated by means of a cell proliferation assay using WST-1 reagent. […] AT-II (10^-6M) Positive control group L […]): LPS 10^-5M) Positive control group AL ([…]): (10^-6M)+LPS (10^-5M) Obeticholic acid administration (G3): AT-II (10^-6M)+LPS (10^-5M)+obeticholic acid (5×10^-6M) ARB administration (G4): AT-II (10^-6M)+LPS (10^-5M)+ARB (10^-6M) Obeticholic acid+ARB combined administration (G5): AT-II (10^-6M)+LPS (10^-5M)+obeticholic acid (5×10^-6M)+ARB (10^-6M) 3) After the cells of the above groups (G1, G2A, G2L, G2AL, G3, G4, G5) were cultured for 24 hours, respective WST-1 cell proliferation assays were conducted, and the inhibitory effect of the pharmaceutical agents on cell proliferation was evaluated. The inhibitory effect of valsartan and candesartan on HHSC proliferation was also evaluated according to steps 1)-3) above. […]

[2] = tested on: α1(I) procollagen; assay: HHSC fibrosis marker gene expression, RT-PCR, α1(I) procollagen; assay type: cell-based, human; settings: AT-II 10^-6M + LPS 10^-5M; ARB 10^-6M, obeticholic acid 5×10^-6M; 24 hours; monotherapy vs G2AL, combination vs monotherapy groups
Experimental: (§1) The various combined effects of obeticholic acid and three types of ARBs (losartan, valsartan, and candesartan) were confirmed in an in vitro cell system experiment. Specifically, using human hepatic stellate cells (HHSC), which are implicated in the main mechanism of progression of hepatic fibrosis in NASH, the effects of administration of obeticholic acid in combination with the three ARBs of inhibiting HHSC proliferation capacity and the expression of fibrosis markers were evaluated according to the following method. Human hepatic stellate cells (HHSC) (also referred to as human hepatic star cells) Obeticholic acid (obtained from Intercept Pharmaceuticals, Inc. via Sumitomo Dainippon Pharma Co., Ltd.) was used as an FXR agonist, and commercial losartan (potassium salt of losartan; referred to in this working example simply as “losartan”) and valsartan and candesartan ([…] of candesartan; referred to in this working example simply as “candesartan”) were used as ARBs. Angiotensin II (AT-II) and/or lipopolysaccharide (LPS) were used (both AT1-mediated AT-II signalling and TLR4-mediated LPS signaling are known to play major roles in HSC activation and the progression of hepatic fibrosis). With respect to the effect of inhibiting fibrosis marker gene expression, collagen production capacity and TGF-β production capacity were evaluated by the RT-PCR method. 1) HHSCs were inoculated onto a 6-well plate in the amount of 300,000 cells/2 ml and allowed to proliferate in 1% FBS DMEM medium for 24 hours. 2) After 24 hours, the cells were divided into the following 7 groups and transferred to culture medium after adding the following drugs and/or reagents. Losartan was used as an ARB. Negative control group (G1): No drugs added (control) […] AT-II (10^-6M) Positive control group L […]): LPS (10^-5M) Positive control group AL ([…]): (10^-6M)+LPS (10^-5M) Obeticholic acid administration (G3): AT-II (10^-6M)+LPS (10^-5M)+obeticholic acid (5×10^-6M) ARB administration (G4): AT-II (10^-6M)+LPS (10^-5M)+ARB (10^-6M) Obeticholic acid+ARB combined administration (G5): AT-II (10^-6M)+LPS (10^-5M)+obeticholic acid (5×10^-6M)+ARB (10^-6M) […] Evaluations were conducted in the five groups G1, G2AL, G3, G4, and G5.

[3] = tested on: TGF-β1; assay: HHSC fibrosis marker gene expression, RT-PCR, TGF-β1; assay type: cell-based, human; settings: AT-II 10^-6M + LPS 10^-5M; ARB 10^-6M, obeticholic acid 5×10^-6M; 24 hours; monotherapy vs G2AL, combination vs monotherapy groups
Experimental: as §1

CCOc1nc2cccc(C(=O)O)c2n1Cc1ccc(-c2ccccc2-c2nn[nH]n2)cc1 [candesartan]
statistically significant inhibition: promotion of activated HHSC proliferation by AT-II and LPS, compared to positive control group AL (G2AL) [1] | α1(I)-procollagen mRNA expression induced by AT-II and LPS in HHSC [2] | TGF-β1 mRNA expression induced by AT-II and LPS in HHSC [3]

CCCCC(=O)N(Cc1ccc(-c2ccccc2-c2nnn[nH]2)cc1)[C@H](C(=O)O)C(C)C [valsartan]
statistically significant inhibition: promotion of activated HHSC proliferation by AT-II and LPS, compared to positive control group AL (G2AL) [1] | α1(I)-procollagen mRNA expression induced by AT-II and LPS in HHSC [2] | TGF-β1 mRNA expression induced by AT-II and LPS in HHSC [3]
